Assay results from patent US20180008587A1, “THIOHYDANTOIN ANDROGEN RECEPTOR ANTAGONISTS FOR THE TREATMENT OF CANCER” (Jaressen Pharmaceutica NV, priority 2016, published 2018).
Residue numbers refer to the chain shown, from its start. pEC50: −log10 of the molar value. Read-outs that look alike come from different tables or passages of the source.

Assays:
Format in all cases: cell-based
[1] = target: T1, F876L mutant Androgen Receptor (AR-F876L) (Homo sapiens, UniProt P10275, F877L); experiment: LNCaP-AR-F876L AG reporter assay (ARE firefly luciferase, agonist mode); conditions: for Emax: read-out: LNCaP-AR-F876L AG MAX % Stim; for EC50: agonist mode, −Log10(EC50 [Molar]), read-out: LNCaP-AR-F876L AG pEC50 (converted)
T1 construct: expressed in transfected cells; host or cells: LNCaP (LNCaP F876L)
T1 sequence (P10275 1-920 F877L): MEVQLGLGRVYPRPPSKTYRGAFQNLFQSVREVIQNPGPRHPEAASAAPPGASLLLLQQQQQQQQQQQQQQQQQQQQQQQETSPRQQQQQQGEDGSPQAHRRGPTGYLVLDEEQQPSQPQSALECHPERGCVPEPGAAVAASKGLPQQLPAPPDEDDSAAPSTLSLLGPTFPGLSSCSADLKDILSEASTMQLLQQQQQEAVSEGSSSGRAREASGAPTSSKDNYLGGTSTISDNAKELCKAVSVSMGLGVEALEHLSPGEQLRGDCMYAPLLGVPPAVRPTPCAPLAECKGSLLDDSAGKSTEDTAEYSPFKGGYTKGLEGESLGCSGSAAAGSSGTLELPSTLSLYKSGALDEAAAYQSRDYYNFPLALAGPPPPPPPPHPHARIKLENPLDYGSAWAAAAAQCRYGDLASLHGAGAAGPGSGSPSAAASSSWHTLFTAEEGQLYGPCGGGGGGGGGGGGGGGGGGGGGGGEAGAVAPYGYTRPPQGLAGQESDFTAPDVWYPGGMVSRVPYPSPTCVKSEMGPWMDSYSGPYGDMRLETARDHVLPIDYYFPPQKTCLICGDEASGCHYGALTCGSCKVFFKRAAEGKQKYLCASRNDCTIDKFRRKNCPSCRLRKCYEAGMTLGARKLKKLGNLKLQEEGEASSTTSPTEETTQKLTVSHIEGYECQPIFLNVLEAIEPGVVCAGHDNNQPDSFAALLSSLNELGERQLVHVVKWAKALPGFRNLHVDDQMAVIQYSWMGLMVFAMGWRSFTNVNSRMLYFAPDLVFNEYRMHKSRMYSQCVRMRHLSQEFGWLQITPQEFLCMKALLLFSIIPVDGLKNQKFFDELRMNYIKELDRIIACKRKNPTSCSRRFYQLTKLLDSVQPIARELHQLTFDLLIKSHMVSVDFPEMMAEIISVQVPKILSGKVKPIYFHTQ
In short: (§1)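 Puromycin-selected pooled LNCaP populations expressing AR-wt or AR-F876L are seeded in CSS medium and treated with compound for 20-24 h at 37 °C. For antagonist testing, agonist is added at 400 pM (WT) or 600 pM (F876L). Potency values derive from least-squares fitting of luminescence RLU.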

[2] = target: T2, wild-type Androgen Receptor (AR-wt) (Homo sapiens, UniProt P10275); experiment: LNCaP-AR-wt ANT reporter assay (ARE firefly luciferase, antagonist mode); conditions: for IC50: antagonist mode, 400 pM R-1881 challenge, −Log10(IC50 [Molar]), read-out: LNCaP-AR-wt ANT pIC50 (converted); for Emax: read-out: LNCaP-AR-wt ANT MAX % Inh
T2 construct: expressed in transfected cells; host or cells: LNCaP (LNCaP AR (cs))
T2 sequence (P10275 1-920): T1 sequence (P10275 1-920 F877L) with L877F
In short: (§2)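 LNCaP cells stably expressing wild-type or F876L AR (puromycin-selected pooled populations) were cultured in charcoal-stripped serum medium. In antagonist mode, agonist challenge was 400 pM for wild-type and 600 pM for F876L.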

[3] = target: T1, F876L mutant Androgen Receptor (AR-F876L); experiment: LNCaP-AR-F876L ANT reporter assay (ARE firefly luciferase, antagonist mode); conditions: for Emax: read-out: LNCaP-AR-F876L ANT MAX % Inh; for IC50: read-out: LNCaP-AR-F876L ANT pIC50 (converted)
In short: as §2

[4] = target: T2, wild-type Androgen Receptor (AR-wt); experiment: LNCaP-AR-wt AG reporter assay (ARE firefly luciferase, agonist mode); conditions: for Emax: read-out: LNCaP-AR-wt AG MAX % Stim; for EC50: agonist mode, −Log10(EC50 [Molar]), read-out: LNCaP-AR-wt AG pEC50 (converted)
In short: as §1

[5] = maximum % stimulation (agonist response) over tested concentration range
[6] = maximum % inhibition of R1881 control response over tested concentration range

Compound	EC50 [1] [µM]	Emax [1, 5] [%]	Emax [2, 6] [%]	Emax [3, 6] [%]	EC50 [4] [µM]	Emax [4, 5] [%]	pEC50 [1]	Emax [1] [%]	IC50 [2] [µM]	Emax [2] [%]	Emax [3] [%]	IC50 [3] [µM]	pEC50 [4]	Emax [4] [%]
C#CCNC(=O)c1ccc(N2C(=S)N(c3cnc(C#N)c(C(F)(F)F)c3)C(=O)C23CCC3)cc1F [Cpd 111, 4-[6-[6-cyano-5-(trifluoromethyl)-3-pyridyl]-5-oxo-7-thioxo-6,8-diazaspiro[3.4]octan-8-yl]-2-fluoro-N-prop-2-ynyl-benzamide]	–	–	–	–	–	–	< 4.82	2.7	0.407	102	94.1	0.525	< 4.82	0.5
N#Cc1ncc(N2C(=O)C3(CCC3)N(c3cccnc3)C2=S)cc1C(F)(F)F [Cpd 9, 5-[5-oxo-8-(3-pyridyl)-7-thioxo-6,8-diazaspiro[3.4]octan-6-yl]-3-(trifluoromethyl)pyridine-2-carbonitrile]	–	–	–	–	–	–	< 4.82	0	0.871	99	100	0.692	< 4.82	-0.2
Cc1cc(N2C(=O)C(C)(C)N(c3ccc(OC4CCN(C)CC4)cc3)C2=S)cnc1C#N [Cpd 1, 5-[4,4-dimethyl-3-[4-[(1-methyl-4-piperidyl)oxy]phenyl]-5-oxo-2-thioxo-imidazolidin-1-yl]-3-methyl-pyridine-2-carbonitrile]	> 15.1	-0.6	100	101	> 15.1	0.5	–	–	0.871	–	–	0.513	–	–
Cc1cc(N2C(=O)C3(CCC3)N(c3ccc(C(=O)NC4CCOCC4)c(F)c3)C2=S)cnc1C#N [Cpd 2, 4-[6-(6-cyano-5-methyl-3-pyridyl)-5-oxo-7-thioxo-6,8-diazaspiro[3.4]octan-8-yl]-2-fluoro-N-tetrahydropyran-4-yl-benzamide]	–	–	–	–	–	–	< 4.82	-0.4	2.24	98.1	99.3	0.288	< 4.82	0.8
N#Cc1ncc(N2C(=O)C3(CCC3)N(c3cccc4ccccc34)C2=S)cc1C(F)(F)F [Cpd 34, 5-[8-(1-naphthyl)-5-oxo-7-thioxo-6,8-diazaspiro[3.4]octan-6-yl]-3-(trifluoromethyl)pyridine-2-carbonitrile]	–	–	–	–	–	–	< 4.82	0.2	0.562	99.7	99.4	0.617	< 4.82	-0.1
CNC(=O)c1ccc(N2C(=S)N(c3cnc(C#N)c(C)c3)C(=O)C23CCC3)cc1F [Cpd 16, 4-[6-(6-cyano-5-methyl-3-pyridyl)-5-oxo-7-thioxo-6,8-diazaspiro[3.4]octan-8-yl]-2-fluoro-N-methyl-benzamide]	> 15.1	0	99.2	98.7	> 15.1	0.3	–	–	0.631	–	–	0.269	–	–
N#Cc1ncc(N2C(=O)C3(CCC3)N(c3ccc4ccncc4c3)C2=S)cc1C(F)(F)F [Cpd 7, 5-[8-(7-isoquinolyl)-5-oxo-7-thioxo-6,8-diazaspiro[3.4]octan-6-yl]-3-(trifluoromethyl)pyridine-2-carbonitrile]	–	–	–	–	–	–	< 4.82	0	0.417	101	100	0.234	< 4.82	-0.2
N#Cc1ncc(N2C(=O)C3(CCC3)N(c3ccc(C(=O)NCCCN4CCOCC4)c(F)c3)C2=S)cc1C(F)(F)F [Cpd 72, 4-[6-[6-cyano-5-(trifluoromethyl)-3-pyridyl]-5-oxo-7-thioxo-6,8-diazaspiro[3.4]octan-8-yl]-2-fluoro-N-(3-morpholinopropyl)benzamide]	–	–	–	–	–	–	< 4.82	0.6	0.251	102	101	0.102	< 4.82	0.3

Now from value to compound, other results behind:

EC50 [1] [µM]	Emax [1, 5] [%]	Emax [2, 6] [%]	Emax [3, 6] [%]	EC50 [4] [µM]	Emax [4, 5] [%]	Compound	pEC50 [1]	Emax [1] [%]	IC50 [2] [µM]	Emax [2] [%]	Emax [3] [%]	IC50 [3] [µM]	pEC50 [4]	Emax [4] [%]
> 15.1	0.3	99.3	96.5	> 15.1	0.3	N#Cc1ncc(N2C(=O)C3(CCC3)N(c3ccc(C(=O)NCCCN4CCCC4=O)c(F)c3)C2=S)cc1C(F)(F)F [Cpd 37, 4-[6-[6-cyano-5-(trifluoromethyl)-3-pyridyl]-5-oxo-7-thioxo-6,8-diazaspiro[3.4]octan-8-yl]-2-fluoro-N-[3-(2-oxopyrrolidin-1-yl)propyl]benzamide]	–	–	1.2	–	–	0.398	–	–
> 15.1	0.1	102	101	> 15.1	0.7	Cc1cc(N2C(=O)C3(CCC3)N(c3ccc(OCCc4ccccn4)c(F)c3)C2=S)cnc1C#N [Cpd 32, 5-[8-[3-fluoro-4-[2-(2-pyridyl)ethoxy]phenyl]-5-oxo-7-thioxo-6,8-diazaspiro[3.4]octan-6-yl]-3-methyl-pyridine-2-carbonitrile]	–	–	0.49	–	–	0.282	–	–
> 15.1	1.9	101	99.6	> 15.1	0.9	N#Cc1ncc(N2C(=O)C3(CCC3)N(c3ccc(F)cc3)C2=S)cc1C(F)(F)F [Cpd 102, 5-[8-(4-fluorophenyl)-5-oxo-7-thioxo-6,8-diazaspiro[3.4]octan-6-yl]-3-(trifluoromethyl)pyridine-2-carbonitrile]	–	–	0.646	–	–	0.501	–	–
> 15.1	0.1	101	100	> 15.1	0.2	Cc1cc(N2C(=O)C3(CCC3)N(c3ccc(C(=O)Nc4ccnn4C)c(F)c3)C2=S)cnc1C#N [Cpd 45, 4-[6-(6-cyano-5-methyl-3-pyridyl)-5-oxo-7-thioxo-6,8-diazaspiro[3.4]octan-8-yl]-2-fluoro-N-(2-methylpyrazol-3-yl)benzamide]	–	–	1.02	–	–	0.437	–	–
